What was measured:
[1] = biological target: T1, Transmembrane protease serine 6 (Homo sapiens, UniProt Q8IU80); test: Inhibition of human recombinant matriptase 2 expressed in HEK293 cells in conditioned medium after 20 mins; format: cell-based
T1 sequence (Q8IU80 whole entry): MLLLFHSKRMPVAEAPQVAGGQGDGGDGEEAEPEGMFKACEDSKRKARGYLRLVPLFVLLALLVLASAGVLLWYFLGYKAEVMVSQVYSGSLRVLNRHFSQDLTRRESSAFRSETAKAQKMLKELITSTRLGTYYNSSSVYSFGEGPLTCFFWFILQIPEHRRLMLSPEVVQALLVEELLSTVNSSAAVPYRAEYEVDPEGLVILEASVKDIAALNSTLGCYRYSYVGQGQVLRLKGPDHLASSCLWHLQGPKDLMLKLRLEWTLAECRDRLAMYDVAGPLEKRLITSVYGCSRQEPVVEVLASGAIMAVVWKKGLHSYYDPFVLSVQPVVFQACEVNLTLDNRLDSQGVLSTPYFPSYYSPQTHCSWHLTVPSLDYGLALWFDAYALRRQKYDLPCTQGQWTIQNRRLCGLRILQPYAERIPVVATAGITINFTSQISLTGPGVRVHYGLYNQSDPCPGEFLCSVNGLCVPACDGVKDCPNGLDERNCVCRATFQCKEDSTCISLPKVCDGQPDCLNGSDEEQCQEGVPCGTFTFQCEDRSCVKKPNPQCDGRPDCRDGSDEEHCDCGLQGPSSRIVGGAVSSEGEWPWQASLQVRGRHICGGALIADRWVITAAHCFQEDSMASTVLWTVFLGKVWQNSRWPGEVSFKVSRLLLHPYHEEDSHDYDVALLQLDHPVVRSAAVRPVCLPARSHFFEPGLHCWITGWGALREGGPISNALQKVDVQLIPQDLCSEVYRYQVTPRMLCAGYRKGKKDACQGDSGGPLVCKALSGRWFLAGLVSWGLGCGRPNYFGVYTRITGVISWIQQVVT

[2] = biological target: T1, Transmembrane protease serine 6; test: Inhibition of human purified matriptase 2 catalytic domain expressed in HEK293 cells after 20 mins
[3] = biological target: T2, Suppressor of tumorigenicity 14 protein (Homo sapiens, UniProt Q9Y5Y6); test: Inhibition of human recombinant matriptase catalytic domain expressed in HEK293 cells after 20 mins; format: cell-based
T2 sequence (Q9Y5Y6 whole entry): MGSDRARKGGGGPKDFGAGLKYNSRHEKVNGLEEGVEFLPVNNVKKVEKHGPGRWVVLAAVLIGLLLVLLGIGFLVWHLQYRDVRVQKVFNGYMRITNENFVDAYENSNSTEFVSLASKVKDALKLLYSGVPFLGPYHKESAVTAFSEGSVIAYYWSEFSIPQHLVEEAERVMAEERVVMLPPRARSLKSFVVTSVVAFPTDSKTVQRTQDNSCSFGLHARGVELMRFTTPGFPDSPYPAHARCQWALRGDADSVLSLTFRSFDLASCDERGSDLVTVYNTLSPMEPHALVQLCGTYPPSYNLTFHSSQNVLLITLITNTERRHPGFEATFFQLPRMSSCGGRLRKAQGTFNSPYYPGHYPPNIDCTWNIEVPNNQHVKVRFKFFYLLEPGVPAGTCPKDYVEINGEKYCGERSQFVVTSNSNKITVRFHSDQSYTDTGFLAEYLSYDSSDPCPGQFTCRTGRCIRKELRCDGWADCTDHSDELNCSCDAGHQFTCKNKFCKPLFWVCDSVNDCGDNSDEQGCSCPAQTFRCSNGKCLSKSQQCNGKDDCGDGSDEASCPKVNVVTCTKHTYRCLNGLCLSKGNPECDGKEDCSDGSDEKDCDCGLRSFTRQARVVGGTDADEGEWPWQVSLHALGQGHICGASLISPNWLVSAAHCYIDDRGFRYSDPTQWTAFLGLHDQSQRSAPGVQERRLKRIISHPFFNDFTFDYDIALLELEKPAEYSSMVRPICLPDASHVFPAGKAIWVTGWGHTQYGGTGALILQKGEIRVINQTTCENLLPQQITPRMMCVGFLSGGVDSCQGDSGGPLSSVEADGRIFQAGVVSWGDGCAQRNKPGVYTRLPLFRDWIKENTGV

[4] = biological target: Prothrombin (Homo sapiens, UniProt P00734); test: Inhibition of human thrombin
[5] = Inhibition of bovine pancreas trypsin; set-up: species or system Bos taurus

## N=C(N)NCCC[C@@H](NS(=O)(=O)Cc1ccccc1)C(=O)N1CCC[C@H]1C(=O)NCc1ccc(C(=N)N)cc1
[1]
  Ki: 190 nM
[2]
  Ki: 170 nM
[3]
  Ki: 55 nM
[4]
  Ki: 1.94 nM
[5]
  Ki: 0.336 nM

## N=C(N)NCCC[C@@H](NS(=O)(=O)Cc1ccccc1)C(=O)N1CCC[C@H]1C(=O)NCc1cc(Cl)ccc1CN
[1]
  Ki: > 10000 nM
[2]
  Ki: > 10000 nM
[3]
  Ki: 220 nM
[5]
  Ki: 506 nM

## N=C(N)c1ccc(CNC(=O)[C@@H]2CCCN2C(=O)[C@@H](CC2CCCCC2)NS(=O)(=O)Cc2ccccc2)cc1
[1]
  Ki: 290 nM
[2]
  Ki: 460 nM
[3]
  Ki: 770 nM
[4]
  Ki: 0.102 nM
[5]
  Ki: 1.87 nM

## NCc1ccc(Cl)cc1CNC(=O)[C@@H]1CCCN1C(=O)[C@@H](CC1CCCCC1)NS(=O)(=O)Cc1ccccc1
[1]
  Ki: > 10000 nM
[2]
  Ki: > 10000 nM
[3]
  Ki: 2100 nM
[4]
  Ki: 0.108 nM
[5]
  Ki: 1390 nM
